From ChEMBL document CHEMBL3600312, “Novel Oxazolidinone-Based Peroxisome Proliferator Activated Receptor Agonists: Molecular Modeling, Synthesis, and Biological Evaluation” (J Med Chem, 2015)
The source made the active and inactive calls. The calls are words filed in the database; no cut-off is given here.

What was measured:
[1] = biological target: T1, Peroxisome proliferator-activated receptor alpha (Homo sapiens, UniProt Q07869); test: Agonist activity at human PPARalpha transfected in human MCF7 cells after 16 hrs by luciferase reporter gene assay; type: cell-based
T1 sequence (Q07869 whole entry): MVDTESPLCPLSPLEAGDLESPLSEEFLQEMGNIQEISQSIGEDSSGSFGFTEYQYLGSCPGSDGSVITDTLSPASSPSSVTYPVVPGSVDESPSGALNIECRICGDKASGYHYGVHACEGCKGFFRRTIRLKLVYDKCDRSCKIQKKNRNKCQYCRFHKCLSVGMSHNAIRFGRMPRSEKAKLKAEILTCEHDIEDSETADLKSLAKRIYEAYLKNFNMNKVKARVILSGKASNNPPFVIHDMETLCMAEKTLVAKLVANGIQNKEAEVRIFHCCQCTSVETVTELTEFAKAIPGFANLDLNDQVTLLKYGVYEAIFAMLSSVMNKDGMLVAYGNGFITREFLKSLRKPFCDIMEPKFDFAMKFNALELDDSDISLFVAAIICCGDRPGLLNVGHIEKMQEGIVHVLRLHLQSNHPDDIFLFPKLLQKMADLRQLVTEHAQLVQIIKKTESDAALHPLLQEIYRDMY

[2] = biological target: T2, Peroxisome proliferator-activated receptor gamma (Homo sapiens, UniProt P37231); test: Agonist activity at human PPARgamma transfected in human MCF7 cells after 16 hrs by luciferase reporter gene assay; type: cell-based
T2 sequence (P37231 whole entry): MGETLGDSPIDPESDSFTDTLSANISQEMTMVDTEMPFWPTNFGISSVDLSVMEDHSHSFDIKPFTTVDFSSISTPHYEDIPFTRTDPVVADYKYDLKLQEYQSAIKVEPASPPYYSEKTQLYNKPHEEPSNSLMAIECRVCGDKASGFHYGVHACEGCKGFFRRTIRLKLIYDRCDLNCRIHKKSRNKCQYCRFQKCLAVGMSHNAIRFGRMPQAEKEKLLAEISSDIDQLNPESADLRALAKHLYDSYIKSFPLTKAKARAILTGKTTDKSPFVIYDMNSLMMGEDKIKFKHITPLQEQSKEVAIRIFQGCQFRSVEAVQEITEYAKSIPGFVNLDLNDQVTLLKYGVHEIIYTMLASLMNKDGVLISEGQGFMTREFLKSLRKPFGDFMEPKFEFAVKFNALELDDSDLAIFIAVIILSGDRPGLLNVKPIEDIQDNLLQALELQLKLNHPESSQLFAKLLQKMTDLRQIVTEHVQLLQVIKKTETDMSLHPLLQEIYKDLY

Rattus norvegicus [3] = test: Inhibition of food intake in ip dosed 24 hrs food derived obese Wistar rat after 24 hrs; type: functional, organism-based
Rattus norvegicus [4] = test: Inhibition of food intake in ip dosed 24 hrs food derived obese Wistar rat after 30 to 240 mins; type: functional, organism-based
Rattus norvegicus [5] = test: Inhibition of food intake in 24 hrs food derived obese Wistar rat at 3 mg/kg, ip measured up to 120 mins relative to vehicle-treated control; type: functional
Rattus norvegicus [6] = test: Inhibition of food intake in 24 hrs food derived obese Wistar rat at 3 mg/kg, ip after 240 mins; type: functional, organism-based

SMILES | EC50 [1] [nM] | other results
O=C(NCc1ccccc1)c1ccc(NC(=O)c2cccc(CN3C(=O)OC[C@H]3Cc3ccccc3)c2)cc1 | > 100000 | EC50 [2]: > 100000 nM
O=C(NCC1CCCCC1)c1ccc(NC(=O)c2cccc(CN3C(=O)OC[C@H]3Cc3ccccc3)c2)cc1 | > 100000 | EC50 [2]: > 100000 nM
O=C(NCc1ccc(C(F)(F)F)cc1)c1ccc(NC(=O)c2cccc(CN3C(=O)OC[C@@H]3Cc3ccccc3)c2)cc1 | > 100000 | –
CCCCCNC(=O)c1ccc(NC(=O)c2cccc(CN3C(=O)OC[C@@H]3Cc3ccccc3)c2)cc1 | > 100000 | –
CCCCCCCCCCCCNC(=O)c1ccc(NC(=O)c2cccc(CN3C(=O)OC[C@H]3Cc3ccccc3)c2)cc1 | 6620 | EC50 [2]: > 100000 nM
O=C(NCc1ccc(C(F)(F)F)cc1)c1ccc(NC(=O)c2cccc(CN3C(=O)OC[C@H]3Cc3ccccc3)c2)cc1 | > 100000 | EC50 [2]: > 100000 nM
CCCCCNC(=O)c1ccc(NC(=O)c2cccc(CN3C(=O)OC[C@H]3Cc3ccccc3)c2)cc1 | – | inhibition (Rattus norvegicus [3]): Dose-dependent effect; inhibition (Rattus norvegicus [4]): Dose-dependent effect
O=C(Nc1ccc(C(=O)NC2CC2)cc1)c1cccc(CN2C(=O)OC[C@H]2Cc2ccccc2)c1 | 1980 | –
CC(C)(C)c1ccc(CNC(=O)c2ccc(NC(=O)c3cccc(CN4C(=O)OC[C@H]4Cc4ccccc4)c3)cc2)cc1 | – | inhibition in vivo at 3 mg/kg (Rattus norvegicus [5]): 50%; inhibition (Rattus norvegicus [4]): Dose-dependent effect; inhibition (Rattus norvegicus [6]): inactive

Further lines, with some results ahead:

EC50 [1] [nM] | SMILES | other results
866 | C[C@@H](Cc1cccc(NC(=O)c2ccc(NC(=O)Cc3ccc(C(C)(C)C)cc3)cc2)c1)C(=O)O | –
1920 | CCCCCC(=O)Nc1ccc(C(=O)Nc2cccc(C[C@H](C)C(=O)N3C(=O)OC[C@H]3Cc3ccccc3)c2)cc1 | –
981 | CCCCCC(=O)Nc1ccc(C(=O)Nc2cccc(C[C@H](C)C(=O)O)c2)cc1 | –
966 | C[C@@H](Cc1cccc(NC(=O)c2ccc(NC(=O)Cc3ccc(C(C)(C)C)cc3)cc2)c1)C(=O)N1C(=O)OC[C@H]1Cc1ccccc1 | –
756 | CC(C)(C)c1ccc(CNC(=O)c2ccc(NC(=O)c3cccc(CN4C(=O)OC[C@@H]4Cc4ccccc4)c3)cc2)cc1 | –
